This is an account of results in US5206435A, “4-amino-2-cyclopentene-1-methanol” (priority 1988, dated 1993).

For series [1], the system named is HIV. Nature of the series: activity against HIV infections (general statement).
Series [2] can be described thus: penetration of the blood-brain barrier upon administration. The format is in vivo.
Series [3] concerns HBV. Nature of the series: activity against HBV infections (general statement). The arrangement: species or system hepatitis B virus.
Series [4] relates to HBV. Nature of the series: anti-HBV activity in the human HBV producer cell line of HepG2, 2.2.15. Format: cell-based, hepatitis B virus. To be noted: at 100 μM; HepG2, 2.2.15 cells. The protocol: The human HBV producer cell line of HepG2,2.2.15, described and characterised by Sells et al., PNAS 84: 1005, 1987 and J.Virol.
To test compounds for anti-HBV activity, monolayer cultures were treated with the test compound: 50-200 μM for ten days. Supernatant media containing extracellular virion DNA (Dane particles) were harvested on days three, six and ten, treated with proteinase K (1 mg/mL) and sodium dodecyl sulfate (1%), and incubated at 50° C. for one hour. DNA was extracted with equal volumes of phenol followed by chloroform and then precipitated by ammonium acetate and propanol. The DNA precipitate was dissolved and collected on nitrocellulose using the procedure of Schleicher and Schuell (S&S, 10 Optical Ave., Keene, N.H. 03431, Publication #700, 1987), and treated as described by Southern, J.Mol.Biol., 98, 503, 1975. […] After precipitation by ammonium acetate and propanol, the intracellular DNA precipitate was dissolved, cut by restriction endonuclease, Hind III, applied to agarose gel and then treated as described by Southern to determine the quantity of replicative intermediate forms. The antiviral effect of the drug was determined by measuring at least a 100-fold reduction of the amount of Dane particles extruded into the culture medium and a similar decrease in the intracellular replicative intermediates.

In series [5] the test system is HIV. Nature of the series: anti-HIV activity in MT4 cells. Format: cell-based. The conditions noted are these: Human immunodeficiency virus 1, average of 10 determinations. As for the experimental part: (1S,4R)-cis-4-[2-amino-6-(cyclopropylamino)-9H-purin-9-yl]-2-cyclopentene-1-methanol was tested for anti-HIV activity in MT4 cells according to the method described by Averett, D. R., J. Virol.

For series [6], the system named is bone marrow progenitor cells. Nature of the series: toxicity against bone marrow progenitor cells. Format: cell-based. The conditions noted are these: compared with 3'-azido-3'-deoxythymidine (zidovudine).

SMILES strings stand for the structures. “Also recorded” adds a separate entry of the source.

For the compound `CN(c1nc(N)nc2c1ncn2[C@H]1C=C[C@@H](CO)C1)C1CC1` [Compound 3, (1S,4R)-cis-4-[2-amino-6-(N-cyclopropyl-N-methylamino)-9H-purin-9-yl]-2-cyclopentene-1-methanol], the “activity against HIV infections” value in the series on HIV [1] is “especially potent activity”. In addition, in series [2], the blood-brain barrier penetration result is given as “capable of penetrating the blood-brain barrier” and the “levels of the compounds or active metabolites in the central nervous system” value is on record as “high levels”. The “activity against HBV infections” value in the series on HBV [3] was “especially potent activity”. The anti-HBV activity entry with HBV [4] is on record as “potent anti-HBV activity”.
As usually defined, the IC50 is the point on the concentration scale where inhibition reaches its midpoint. Higher therefore signals weaker potency. Compound `Nc1nc(NC2CC2)c2ncn([C@H]3C=C[C@@H](CO)C3)c2n1` [Compound 1, (1S,4R)-cis-4-[2-amino-6-(cyclopropylamino)-9H-purin-9-yl]-2-cyclopentene-1-methanol] came in with an IC50 with HIV [5] of 4 ± 1.4 µM. For the same compound, the “toxicity against bone marrow progenitor cells” value in series [6] is given as “significantly lower toxicity”. Further, in the series with HIV [1], the “activity against HIV infections” value was “especially potent activity; also recorded: exceptionally potent activity”. In addition, in series [2], the blood-brain barrier penetration entry is given as “capable of penetrating the blood-brain barrier” and the “levels of the compounds or active metabolites in the central nervous system” value is listed as “high levels”. The “activity against HBV infections” value in the series on HBV [3] is recorded as “especially potent activity; also recorded: exceptionally potent activity”.
